Measured values published in PMC7591920, “A protein tertiary structure mimetic modulator of the Hippo signalling pathway” (Nature Communications, 2020).
Bridge positions count the residues as written; N and C are the ends. Square brackets hold non-standard residues; d marks the D form. Peptide text beside a SMILES is read from it. Orn = NCCC[C@H](N)C(=O)O

Assays:
mTEAD4 [1] = molecular target: T1, mTEAD4 (Mus musculus, UniProt Q62296); experiment: Competition fluorescence polarization with mTEAD4 (alanine scan); format: binding; conditions: Ac-peptide vs FITC-labelled tracer peptide 10 nM, mTEAD4 400 nM, 1 h
T1 construct: Mouse TEAD4(210–427) cDNA fused with a 6x His-tag and a 3C protease cleavage site; 6x His-tag; 3C protease cleavage site; made in house; host or cells: E. coli BL21 DE3 RIL(K+)
T1 sequence (Q62296 210-427): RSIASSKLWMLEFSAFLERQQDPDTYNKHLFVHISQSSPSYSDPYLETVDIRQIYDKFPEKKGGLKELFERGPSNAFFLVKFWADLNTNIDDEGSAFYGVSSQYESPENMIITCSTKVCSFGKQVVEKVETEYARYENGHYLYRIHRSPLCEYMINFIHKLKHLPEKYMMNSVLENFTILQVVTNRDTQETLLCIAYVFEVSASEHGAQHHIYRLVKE
Method: Competition FP: N-terminally acetylated peptides were diluted 1:1 in a 384-well plate (5 μL, 75 μM−9 pM). Ten microlitres of a mixture (1:1) of mTEAD4 and FITC-labelled peptide was added (final concentrations: acetylated peptides = 50 μM−6 pM; mTEAD4 protein = 400 nM; FITC-labelled tracer peptide = 10 nM). After 1 h, FP was measured (λ(ex) = […]). IC50 was determined from the binding curve with GraphPad from Prism.

mTEAD4 [2] = molecular target: T1, mTEAD4; experiment: SPR binding to immobilised mTEAD4; conditions: mTEAD4 amine-coupled on CM5, multi-cycle, steady-state fit 1:1 model, 10 mM HEPES 150 mM NaCl 0.05% Tween-20 pH 7.4, 0.3% DMSO, 20 °C, Fig. 1 values n = 1 replicate
Method: (§1) Sensor chips Series S CM5 (Research grade) were obtained from GE Healthcare. Prior to use, the sensor chips were equilibrated at room temperature for 15 min to prevent water condensation on the detector side of the sensor chip surface. A running buffer was prepared composed of 10 mM HEPES, 150 mM NaCl, and 0.05% (w/v) Tween-20, pH 7.4, and the system was equilibrated at 20 °C using a flow rate of 30 µL min^−1 after docking of the sensor chip. Ligand binding experiments have been performed applying the concept of multi-cycle kinetics. A contact time of 45 s was selected, followed by a 6-min dissociation phase to allow for complete dissociation of the analyte prior to the next cycle. […] Typically, seven concentrations of the analytes have been examined applying a threefold dilution pattern with 30 µM as top concentration. For the analysis, five running buffer blanks were injected to equilibrate the instrument. […] The carboxyl-dextran surface was activated for 7 min with 0.05 M NHS and 0.2 M EDC, followed by an injection of the proteins in 10 mM MES pH 6.4 at a concentration of 30–50 µg mL^−1. […] This was followed by a deactivation of the residual esters by injecting a solution of 0.5 M ethanolamine pH 8.0 for 7 min before engaging in ligand binding experiments. Reference surfaces were prepared accordingly, omitting the injection of protein over the activated reference surface.

GST-hTEAD1 = molecular target: T2, GST-hTEAD1 (Homo sapiens, UniProt P28347); experiment: SPR binding to immobilised GST-hTEAD1; conditions: GST-hTEAD1 amine-coupled on CM5, multi-cycle, steady-state fit 1:1 model, 10 mM HEPES 150 mM NaCl 0.05% Tween-20 pH 7.4, 0.3% DMSO, 20 °C, Fig. 1 values n = 1 replicate
T2 construct: CDNA of hTEAD1(209–426) fused with an N-terminal GST tag; made in house; host or cells: Escherichia coli BL21 DE3 RIL(K+)
T2 sequence (P28347 209-426): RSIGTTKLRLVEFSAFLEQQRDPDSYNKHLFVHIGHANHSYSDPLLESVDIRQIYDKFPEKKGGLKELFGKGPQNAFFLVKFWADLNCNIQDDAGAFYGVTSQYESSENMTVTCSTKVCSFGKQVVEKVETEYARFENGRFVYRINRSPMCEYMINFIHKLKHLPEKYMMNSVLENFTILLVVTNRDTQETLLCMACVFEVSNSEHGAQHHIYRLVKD
Method: as §1

[3] = system: primary juvenile (P5–P6) rat cardiomyocytes; experiment: Cell cycle activity assay (Ki67/αActinin) in juvenile rat cardiomyocytes; format: cell-based; conditions: c = 10 µM, 4 days, relative to DMSO-treated cells (100), mean of N = 6
Method: One day after seeding, the cells were treated with test compounds of interest. Treatments were applied with an ECHO 520 acoustic dispenser (Labcyte) and medium was added to the wells. Four days after treatment, the cells were fixed with 4% formaldehyde (Roth) and immunostained in 0.2% Triton-X100 (Roth) in PBS (Gibco) supplemented with 5% FBS. […] Samples were then imaged and analysed on an ImageXpress XL automated microscope (Molecular Devices). Data are depicted as means ± SEM.

rat heart cells = experiment: Cell toxicity assessment on rat heart cells in culture; conditions: c(peptide) = 10 µM
Method: whole heart cells monitored by fluorescence microscopy after 90 minutes treatments (scale bar: 25 µm), number of […]
4E as well as control compounds (SB203580, CHIR99021) on rat heart cells in culture (c(peptide) = 10 µM). Number of independent biological replicates: n = 6, error bars = SEM. […]
cytometry analysis of live cells after 90 min incubation at 5 µM: Representative histogram plot, (-) DMSO control). Source data are provided as a Source Data file.
(1 picture or pasted object on this page, not shown here)

| Kd (mTEAD4 [2]) | Kd (GST-hTEAD1) | Compound | other results |
| --- | --- | --- | --- |
| > 100 µM | > 100 µM | CC[C@H](C)[C@@H]1NC(=O)[C@H](CCC(N)=O)NC(=O)[C@H](CC(C)C)NC(=O)[C@H](Cc2c[nH]c3ccccc23)NC(=O)[C@H]([C@@H](C)O)NC(=O)[C@H](C)NC(=O)CNC(=O)[C@H](CC(C)C)NC(=O)[C@H](C)NC(=O)[C@H](CCCCN)NC(=O)[C@H](C)NC(=O)[C@H](Cc2ccccc2)NC(=O)[C@H](Cc2c[nH]cn2)NC(=O)[C@H](CC(=O)O)NC(=O)[C@@H](NC(=O)[C@@H](NC(=O)[C@H](CO)NC(C)=O)C(C)C)CCC(=O)NCCCC[C@@H](C(=O)N[C@@H](C)C(=O)N[C@@H](C)C(N)=O)NC1=O [compound 21] (Ac-SVEDHFAKALGATWLQIKAA-NH2; lactam 3-18) | IC50 (mTEAD4 [1]): > 100 µM |
| – | 1.7 ± 0.01 µM | CC[C@H](C)[C@@H]1NC(=O)[C@H](CCC(N)=O)NC(=O)[C@H](CC(C)C)NC(=O)[C@H](Cc2c[nH]c3ccccc23)NC(=O)[C@H]([C@@H](C)O)NC(=O)[C@H](CC(=O)O)NC(=O)CNC(=O)[C@H](CC(C)C)NC(=O)[C@H](C)NC(=O)[C@H](C)NC(=O)[C@H](C)NC(=O)[C@H](Cc2ccccc2)NC(=O)[C@H](Cc2c[nH]cn2)NC(=O)[C@H](CC(=O)O)NC(=O)[C@@H](NC(=O)[C@@H](NC(=O)[C@H](CO)NC(C)=O)C(C)C)CCC(=O)NCCCC[C@@H](C(=O)N[C@@H](C)C(=O)N[C@@H](C)C(N)=O)NC1=O [compound 19] (Ac-SVEDHFAAALGDTWLQIKAA-NH2; lactam 3-18) | – |
| – | 1.5 µM | CC[C@H](C)[C@@H]1NC(=O)[C@H](CCC(N)=O)NC(=O)[C@H](CC(C)C)NC(=O)[C@H](Cc2c[nH]c3ccccc23)NC(=O)[C@H]([C@@H](C)O)NC(=O)[C@H](CC(=O)O)NC(=O)CNC(=O)[C@H](CC(C)C)NC(=O)[C@H](C)NC(=O)[C@H](CCCCN)NC(=O)[C@H](C)NC(=O)[C@H](Cc2ccccc2)NC(=O)[C@H](Cc2c[nH]cn2)NC(=O)[C@H](CC(=O)O)NC(=O)[C@@H](NC(=O)[C@@H](NC(=O)[C@H](CO)NC(C)=O)C(C)C)CCC(=O)NCCC[C@@H](C(=O)N[C@@H](C)C(=O)N[C@@H](C)C(N)=O)NC1=O [4D] (Ac-SVEDHFAKALGDTWLQI[Orn]AA-NH2; lactam 3-18) | – |
| 113 ± 3.5 µM | – | CC[C@H](C)[C@@H]1NC(=O)[C@H](CCC(N)=O)NC(=O)[C@H](CC(C)C)NC(=O)[C@H](Cc2c[nH]c3ccccc23)NC(=O)[C@H](C)NC(=O)[C@H](CC(=O)O)NC(=O)CNC(=O)[C@H](CC(C)C)NC(=O)[C@H](C)NC(=O)[C@H](CCCCN)NC(=O)[C@H](C)NC(=O)[C@H](Cc2ccccc2)NC(=O)[C@H](Cc2c[nH]cn2)NC(=O)[C@H](CC(=O)O)NC(=O)[C@@H](NC(=O)[C@@H](NC(=O)[C@H](CO)NC(C)=O)C(C)C)CCC(=O)NCCCC[C@@H](C(=O)N[C@@H](C)C(=O)N[C@@H](C)C(N)=O)NC1=O [compound 22] (Ac-SVEDHFAKALGDAWLQIKAA-NH2; lactam 3-18) | IC50 (mTEAD4 [1]): > 100 µM |
| – | 1.5 ± 0.02 µM | CC[C@H](C)[C@@H]1NC(=O)[C@H](CCC(N)=O)NC(=O)[C@H](CC(C)C)NC(=O)[C@H](Cc2c[nH]c3ccccc23)NC(=O)[C@H]([C@@H](C)O)NC(=O)[C@H](CC(=O)O)NC(=O)CNC(=O)[C@H](CC(C)C)NC(=O)[C@H](C)NC(=O)[C@H](CCCCN)NC(=O)[C@H](C)NC(=O)[C@H](Cc2ccccc2)NC(=O)[C@H](Cc2c[nH]cn2)NC(=O)[C@H](CC(=O)O)NC(=O)[C@@H](NC(=O)[C@@H](NC(=O)[C@H](C)NC(C)=O)C(C)C)CCC(=O)NCCCC[C@@H](C(=O)N[C@@H](C)C(=O)N[C@@H](C)C(N)=O)NC1=O [compound 14] (Ac-AVEDHFAKALGDTWLQIKAA-NH2; lactam 3-18) | – |
| 21.8 µM | 19.4 µM | CC(=O)N[C@@H](CC(=O)O)C(=O)N1CCC[C@H]1C(=O)N[C@H](C(=O)N[C@H](C(=O)N[C@@H](CCC(=O)O)C(=O)N[C@@H](CCC(=O)O)C(=O)N[C@@H](Cc1c[nH]cn1)C(=O)N[C@@H](Cc1ccccc1)C(=O)N[C@@H](CCCNC(=N)N)C(=O)N[C@@H](CCCNC(=N)N)C(=O)N[C@@H](CO)C(=O)N[C@@H](CC(C)C)C(=O)NCC(=O)N[C@@H](CCCCN)C(=O)N[C@@H](CC(N)=O)C(=O)N[C@@H](Cc1ccc(O)cc1)C(N)=O)C(C)C)C(C)C [compound 2] (Ac-DPVVEEHFRRSLGKNY-NH2) | – |
| 12 µM | 17 µM | CC[C@H](C)[C@H](NC(=O)[C@H](CCC(N)=O)NC(=O)[C@H](CC(C)C)NC(=O)[C@H](Cc1c[nH]c2ccccc12)NC(=O)[C@@H](NC(=O)[C@H](CC(=O)O)NC(=O)CNC(=O)[C@H](CC(C)C)NC(=O)[C@H](C)NC(=O)[C@H](CCCCN)NC(=O)[C@H](C)NC(=O)[C@H](Cc1ccccc1)NC(=O)[C@H](Cc1c[nH]cn1)NC(=O)[C@H](CC(=O)O)NC(=O)[C@H](CC(=O)O)NC(=O)[C@@H](NC(=O)[C@H](CO)NC(C)=O)C(C)C)[C@@H](C)O)C(=O)N[C@@H](C)C(=O)N[C@@H](C)C(=O)N[C@@H](C)C(N)=O [compound 13] (Ac-SVDDHFAKALGDTWLQIAAA-NH2) | – |
| 15 ± 0.85 µM | – | CC[C@H](C)[C@@H]1NC(=O)[C@H](CCC(N)=O)NC(=O)[C@H](CC(C)C)NC(=O)[C@H](C)NC(=O)[C@H]([C@@H](C)O)NC(=O)[C@H](CC(=O)O)NC(=O)CNC(=O)[C@H](CC(C)C)NC(=O)[C@H](C)NC(=O)[C@H](CCCCN)NC(=O)[C@H](C)NC(=O)[C@H](Cc2ccccc2)NC(=O)[C@H](Cc2c[nH]cn2)NC(=O)[C@H](CC(=O)O)NC(=O)[C@@H](NC(=O)[C@@H](NC(=O)[C@H](CO)NC(C)=O)C(C)C)CCC(=O)NCCCC[C@@H](C(=O)N[C@@H](C)C(=O)N[C@@H](C)C(N)=O)NC1=O [compound 23] (Ac-SVEDHFAKALGDTALQIKAA-NH2; lactam 3-18) | IC50 (mTEAD4 [1]): > 50 µM |
| > 100 µM | > 100 µM | CC[C@H](C)[C@H](NC(=O)[C@H](CCC(N)=O)NC(=O)[C@H](CC(C)C)NC(=O)[C@H](Cc1c[nH]c2ccccc12)NC(=O)[C@@H](NC(=O)[C@H](CC(=O)O)NC(C)=O)[C@@H](C)O)C(=O)N[C@@H](CCCCN)C(=O)N[C@@H](C)C(=O)N[C@@H](C)C(N)=O [compound 6] (Ac-DTWLQIKAA-NH2) | – |
| > 100 µM | > 100 µM | CC[C@H](C)[C@H](NC(=O)[C@H](CO)NC(=O)[C@@H](NC(=O)[C@H](CO)NC(=O)[C@H](CC(N)=O)NC(=O)[C@@H]1CCCN1C(=O)[C@H](C)NC(=O)[C@@H]1CCCN1C(=O)[C@H](CCC(=O)O)NC(=O)[C@@H]1CCCN1C(=O)[C@H](CCC(=O)O)NC(=O)[C@H](CCCCN)NC(C)=O)C(C)C)C(=O)N[C@H](C(=O)NCC(N)=O)[C@@H](C)O [compound 3] (Ac-KEPEPAPNSVSITG-NH2) | – |
| – | – | C[S+]([O-])c1ccc(-c2nc(-c3ccncc3)c(-c3ccc(F)cc3)[nH]2)cc1 (centres unmarked) [SB203580, reference compound] | Cell cycle activity, MEAN [3]: 122.95 |
| – | – | Cc1c[nH]c(-c2cnc(NCCNc3ccc(C#N)cn3)nc2-c2ccc(Cl)cc2Cl)n1 [CHIR99021, reference compound] | Total cell number (% DMSO control) (rat heart cells; raw data replicate 1): 164.318 % DMSO control; Total cell number (% DMSO control) (rat heart cells; raw data replicate 2): 154.314 % DMSO control; Total cell number (% DMSO control) (rat heart cells; raw data replicate 3): 186.382 % DMSO control; Total cell number (% DMSO control) (rat heart cells; raw data replicate 4): 116.435 % DMSO control; Total cell number (% DMSO control) (rat heart cells; raw data replicate 5): 128.897 % DMSO control; Total cell number (% DMSO control) (rat heart cells; raw data replicate 6): 164.042 % DMSO control; Cell cycle activity, MEAN [3]: 152.398 |
